Laboratory results as given in ChEMBL document CHEMBL1140744, “Binding of serotonin and N1-benzenesulfonyltryptamine-related analogs at human 5-HT6 serotonin receptors: receptor modeling studies” (J Med Chem, 2008).

Biological target: 5-hydroxytryptamine receptor 6 (Homo sapiens, UniProt P50406)
Assay: Displacement of [3H]LSD from human 5HT6 receptor expressed in HEK293 cells
Assay type: cell-based

Chain of 5-hydroxytryptamine receptor 6 (P50406 whole entry): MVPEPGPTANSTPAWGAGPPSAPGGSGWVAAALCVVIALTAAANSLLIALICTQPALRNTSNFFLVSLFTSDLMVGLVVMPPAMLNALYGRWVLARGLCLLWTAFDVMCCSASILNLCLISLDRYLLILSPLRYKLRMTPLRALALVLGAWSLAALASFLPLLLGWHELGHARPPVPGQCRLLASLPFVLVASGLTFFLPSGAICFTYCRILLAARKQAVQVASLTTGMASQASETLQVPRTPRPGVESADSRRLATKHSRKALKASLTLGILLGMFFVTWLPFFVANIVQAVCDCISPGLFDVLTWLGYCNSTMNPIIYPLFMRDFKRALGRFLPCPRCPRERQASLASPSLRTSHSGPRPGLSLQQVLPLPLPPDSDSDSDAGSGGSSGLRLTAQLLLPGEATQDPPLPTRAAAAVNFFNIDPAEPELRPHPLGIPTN

SMILES	Ki
CN(C)[C@@H]1CCc2c(cccc2NS(=O)(=O)c2ccccc2)C1	49 nM
CN(C)[C@H]1CCc2c(cccc2NS(=O)(=O)c2ccccc2)C1	90 nM
CCc1[nH]c2ccc(OC)cc2c1C[C@@H]1CCCN1C	220 nM
CN(C)CCc1cn(Sc2ccccc2)c2ccccc12	90 nM
CCc1[nH]c2ccc(OC)cc2c1C[C@H]1CCCN1C	1.8 nM
